Source: patent US6875761B2 (Eisai Co., Ltd., priority 1997, dated 2005)
Where a name gives a salt, the structure may show the parent alone.

How the values were obtained:
serotonin 1A receptor = biological target: T1, serotonin 1A receptor (Rattus norvegicus, UniProt P19327); assay: Binding test on [3H] 8-hydroxy-dipropylaminotetralin, hippocampus receptor fraction; set-up: species or system SD rats; settings: rat hippocampus receptor fraction, 0.5 nM [3H] 8-OH-DPAT, room temperature 30 min; read-out: 5HT1
T1 construct: To the receptor fraction of the hippocampus were added a test compound and 0.5 nM of [^3H]; 8-hydroxy-dipropylaminotetralin; from tissue; host or cells: rat hippocampus membrane fraction
T1 sequence (P19327 1-422): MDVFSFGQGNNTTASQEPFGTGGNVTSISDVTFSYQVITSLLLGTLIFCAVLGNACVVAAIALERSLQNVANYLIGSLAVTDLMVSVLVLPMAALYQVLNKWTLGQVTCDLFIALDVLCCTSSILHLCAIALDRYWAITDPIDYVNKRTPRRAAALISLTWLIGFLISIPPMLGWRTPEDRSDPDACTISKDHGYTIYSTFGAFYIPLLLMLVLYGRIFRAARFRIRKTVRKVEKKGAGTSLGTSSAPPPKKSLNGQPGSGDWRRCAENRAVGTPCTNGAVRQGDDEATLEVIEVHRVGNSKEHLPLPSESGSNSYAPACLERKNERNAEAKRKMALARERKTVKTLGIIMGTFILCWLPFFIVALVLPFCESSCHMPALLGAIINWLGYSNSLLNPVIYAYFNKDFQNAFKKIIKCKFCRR

serotonin 2 receptor = biological target: T2, serotonin 2 receptor (Rattus norvegicus, UniProt P14842); assay: Binding test on [3H] ketanserin, cerebral cortex receptor fraction; set-up: species or system SD rats; settings: 0.3 nM [3H] ketanserin, 37° C. 15 min, read-out: 5HT2
T2 construct: To the receptor fraction of the cerebral cortex were added a test compound and 0.3 nM of [^3H] ketanserin; from tissue; host or cells: rat cerebral cortex membrane fraction
T2 sequence (P14842 whole entry): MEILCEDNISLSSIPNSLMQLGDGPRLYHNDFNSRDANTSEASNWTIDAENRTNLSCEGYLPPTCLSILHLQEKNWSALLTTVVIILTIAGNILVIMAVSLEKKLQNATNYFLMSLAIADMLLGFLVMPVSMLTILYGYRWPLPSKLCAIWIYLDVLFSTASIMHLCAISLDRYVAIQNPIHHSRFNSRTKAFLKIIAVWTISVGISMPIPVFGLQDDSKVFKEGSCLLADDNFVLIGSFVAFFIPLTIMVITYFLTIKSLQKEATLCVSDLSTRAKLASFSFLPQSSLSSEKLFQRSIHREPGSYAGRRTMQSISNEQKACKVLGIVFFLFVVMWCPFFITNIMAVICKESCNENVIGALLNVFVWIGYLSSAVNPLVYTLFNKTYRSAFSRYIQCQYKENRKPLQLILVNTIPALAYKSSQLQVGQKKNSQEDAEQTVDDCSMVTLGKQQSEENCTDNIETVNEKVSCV
Method: Methysergide maleate was dissolved in distilled water before using.
Use was made of SD rats aged 6 to 8 weeks.
The rats were sacrificed by dcapitation to extirpate the cerebra.
Each mixture was homogenized by using a Teflon glass homogenizer and centrifuged as 1,000× g for 10 min. The supernatant thus obtained was further centrifuged at 20,000× g for 20 min. […] After centrifuging at 20,000× g for 20 min, the obtained precipitate was further suspended and centrifuged twice each in the same manner. […] This receptor fraction was stored at −80° C. until using.
To the receptor fraction of the cerebral cortex were added a test compound and 0.3 nM of [^3H] ketanserin and the resultant mixture was incubated at 37° C. for 15 min. Next, it was filtered through a glass filter with the use of a cell harvester. After washing the glass filter with 50 mM Tris hydrochloride (pH 7.4), the radioactivity of the receptor was measured with a liquid scintillation counter. The binding detected in the presence of 1 μM of methysergide was referred to as the nonspecific binding.
IC50 was calculated by the probit method, while Ki was determined in accordance with the following formula: Ki=IC50(1+c/Kd) wherein c represents the concentration of the radioisotope-labeled compound, and Kd represents the dissociation constant of the radioisotope-labeled compound with respect to the receptor determined by Scatchard's analysis.

Row | SMILES | Ki (serotonin 1A receptor) [nM] | Ki (serotonin 2 receptor) [nM]
1 | CCN1CCN(c2nc(-c3ccc([C@H]4CC[C@@H](O)CC4)cc3)cc3ccccc23)CC1 [Example 397, 1-(4-Ethylpiperazin-1-yl)-3-[4-(cis-4-Hydroxycyclohexyl)Phenyl]Isoquinoline Dihydrochloride] | 53.3 | 0.9
2 | CCN1CCN(c2nc(-c3ccc([C@H]4CC[C@H](O)CC4)cc3)cc3ccccc23)CC1 [Example 398, 1-(4-Ethylpiperazin-1-yl)-3-[4-(trans-4-Hydroxycyclohexyl)Phenyl]Isoquinoline Dihydrochloride] | 8 | 5.9
3 | CCN1CCN(c2nc(-c3ccc(CC4CCOCC4)cc3)cc3ccccc23)CC1 [Example 399, 1-(4-Ethylpiperazin-1-yl)-3-[4-(tetrahydropyran-4-yl)Methylphenyl]Isoquinoline Dihydrochloride] | 53 | 17.2
4 | CCN1CCN(c2nc(-c3ccc(OC[C@@H](C)O)cc3)cc3ccccc23)CC1 [Example 403, 1-(4-ethylpiperazin-1-yl)-3-[4-(2-hydroxypropoxy)phenyl]isoquinoline Dihydrochloride] | 28.4 | 0.78
5 | CCN1CCN(c2nc(-c3ccc(O[C@@H](C)CO)cc3)cc3ccccc23)CC1 [Example 404, 1-(4-ethylpiperazin-1-yl)-3-[4-(2-hydroxy-1-methylethoxy)phenyl]isoquinoline Dihydrochloride] | 18.8 | 1.07
6 | CCN1CCN(c2nc(-c3ccnc(OC)c3)cc3ccccc23)CC1 [Example 405, 1-(4-ethylpiperazin-1-yl)-3-(2-methoxypyridin-4-yl)isoquinoline] | 22.6 | 10.2
7 | CCN1CCN(c2nc(-c3ccnc(OCCOC)c3)cc3ccccc23)CC1 [Example 407, 1-(4-ethylpiperazin-1-yl)-3-[2-(2-methoxyethoxy)pyridin-4-yl]isoquinoline] | 17.8 | 26.1
8 | CCN1CCN(c2nc(-c3ccc(C(N)=O)cc3)cc3ccccc23)CC1 [Example 408, 1-(4-ethylpiperazin-1-yl)-3-(4-carbamoylphenyl)isoquinoline] | 19.8 | 36.3
9 | CCN1CCN(c2nc(-c3ccc(C(O)C4CCCCC4)cc3)cc3ccccc23)CC1 (stereo not shown) [Example 409, 1-(4-ethylpiperazin-1-yl)-3-[4-(cyclohexylhydroxymethyl)phenyl]isoquinoline] | 16.4 | 9.7
10 | CCN1CCN(c2nc(-c3ccc(C4(O)CCOCC4)cc3)cc3ccccc23)CC1 [Example 410, 1-(4-ethylpiperazin-1-yl)-3-[4-(4-hydroxytetrahydropyran-4-yl)phenyl]isoquinoline] | 21.1 | 2.1
11 | CCN1CCN(c2nc(-c3ccc(C(O)c4nccs4)cc3)cc3ccccc23)CC1 (stereo not shown) [Example 412, 1-(4-ethylpiperazin-1-yl)-3-[4-(1,3-thiazol-2-yl)hydroxymethylphenyl]isoquinoline] | 19.1 | 41.4
12 | CCN1CCN(c2nc(-c3ccc4c(c3)CCC4=O)cc3ccccc23)CC1 [Example 414, 1-(4-ethylpiperazin-1-yl)-3-(1-indanon-5-yl)isoquinoline] | 17.3 | 4.2
13 | CCN1CCN(c2nc(-c3ccc4c(c3)CCC4O)cc3ccccc23)CC1 (stereo not shown) [Example 415, 1-(4-ethylpiperazin-1-yl)-3-(1-hydroxyindan-5-yl)isoquinoline] | 3.6 | 11.6
14 | CCN1CCN(c2nc(-c3ccc(OCCO)c(C#N)c3)cc3ccccc23)CC1 [Example 417, 1-(4-ethylpiperazin-1-yl)-3-[3-cyano-4-(2-hydroxyethoxy)phenyl]isoquinoline] | 13.4 | 4.5
15 | CCN1CCN(c2nc(-c3cccc(CCCO)c3)cc3ccccc23)CC1 [Example 418, 1-(4-ethylpiperazin-1-yl)-3-[3-(3-hydroxypropyl)phenyl]isoquinoline] | 54.5 | 17.4
16 | CCN1CCN(c2nc(Cc3ccccc3)cc3ccccc23)CC1 [Example 419, 1-(4-ethylpiperazin-1-yl)-3-benzylisoquinoline] | 94.8 | 16.4
17 | CCN1CCN(c2nc(CC(O)c3ccccc3)cc3ccccc23)CC1 (stereo not shown) [Example 420, 1-(4-ethylpiperazin-1-yl)-3-(2-hydroxy-2-phenylethyl)isoquinoline] | 117 | 22.4
18 | CCN1CCN(c2nc(NC(=O)c3ccccc3)cc3ccccc23)CC1 [Example 421, 3-benzamide-1-(4-ethylpiperazin-1-yl)isoquinoline] | 9.47 | 129

Row | SMILES | Ki (serotonin 1A receptor) [nM] | Ki (serotonin 2 receptor) [nM]
19 | CCN1CCN(c2nc(NS(=O)(=O)c3ccccc3)cc3ccccc23)CC1 [Example 422, 3-benzenesulfoneamide-1-(4-ethylpiperazin-1-yl)isoquinoline] | 5.32 | 175
20 | CCN1CCN(c2nc(NS(=O)(=O)c3ccc(OC)cc3)cc3ccccc23)CC1 [Example 423, 1-(4-ethylpiperazin-1-yl)-3-(4-methoxybenzenesulfonamide)isoquinoline] | 9.81 | 332
21 | CCN1CCN(c2nc(COc3ccc(OC)cc3)cc3ccccc23)CC1 [Example 424, 1-(4-ethylpiperazin-1-yl)-3-(4-methoxyphenoxymethyl)isoquinoline Hydrochloride] | 61.6 | 1.93
22 | CCN1CCN(c2nc(-c3ccc(OCCO)cc3OC)cc3ccccc23)CC1 [Example 425, 1-(4-ethylpiperazin-1-yl)-3-[4-(2-hydroxyethoxy)-2-methoxyphenyl]isoquinoline] | 321 | 2.55
23 | CCN1CCN(c2nc(-c3ccc(OC4CCCCC4O)cc3)cc3ccccc23)CC1 (stereo not shown) [Example 426, 1-(4-ethylpiperazin-1-yl)-3-[4-(2-hydroxycyclohexyloxy)phenyl]isoquinoline Hydrochloride] | 133 | 7.1
24 | CCN1CCN(c2nc(-c3ccc(OC)cc3)nc3ccccc23)CC1 [Example 427, 4-(4-ethylpiperazin-1-yl)-2-(4-methoxyphenyl)quinazoline Dihydrochloride] | 80.9 | 300
25 | CCN1CCN(c2nc(/C=C/c3cccc(OCCO)c3)cc3ccsc23)CC1 [Example 430, 7-(4-ethylpiperazin-1-yl)-5-[3-(2-hydroxyethoxy)styryl]thieno [2,3-c]pyridine hydrochloride] | 2.48 | 11.7
26 | CCN1CCN(c2nc(/C=C/c3ccc(OCCO)cc3)cc3ccsc23)CC1 [Example 431, 7-(4-ethylpiperazin-1-yl)-5-[4-(2-hydroxyethoxy)styryl]thieno[2,3-c]pyridine hydrochloride] | 1.98 | 2.11
27 | CCN1CCN(c2nc(-c3ccc(CCCO)cc3)cc3ccsc23)CC1 [Example 432, 7-(4-ethylpiperazin-1-yl)-5-[4-(3-hydroxypropyl)phenyl]thieno[2,3-c]pyridine hydrochloride] | 1.98 | 28.5
28 | CCN1CCN(c2nc(-c3ccc(CCCO)c(OC)c3)cc3ccsc23)CC1 [Example 433, 7-(4-ethylpiperazin-1-yl)-5-[4-(3-hydroxypropyl)-3-methoxyphenyl]thieno[2,3-c]-pyridine hydrochloride] | 20.6 | 3.53
29 | CCN1CCN(c2nc(-c3ccc(OCCCO)cc3)cc3ccsc23)CC1 [Example 434, 7-(4-ethylpiperazin-1-yl)-5-[4-(3-hydroxypropoxy)phenyl]thieno[2,3-c]pyridine dihydrochloride] | 64.9 | 60.5
30 | CCN1CCN(c2nc(-c3ccc(OC[C@@H](C)O)cc3)cc3ccsc23)CC1 [Example 435, 7-(4-ethylpiperazin-1-yl)-5-[4-(2-hydroxypropoxy)phenyl]thieno[2,3-c]pyridine dihydrochloride] | 61.2 | 1.14
31 | CCN1CCN(c2nc(-c3ccc(CC(C)O)cc3)cc3ccsc23)CC1 (stereo not shown) [Example 436, 7-(4-ethylpiperazin-1-yl)-5-[4-(2-hydroxypropyl)phenyl]thieno[2,3-c]pyridine dihydrochloride] | 8.64 | 26
32 | CCN1CCN(c2nc(-c3ccc(OCCO)c(Cl)c3)cc3ccsc23)CC1 [Example 437, 7-(4-ethylpiperazin-1-yl)-5-[3-chloro-4-(2-hydroxyethoxy)phenyl]thieno[2,3-c]pyridine] | 30.5 | 18.1
33 | CCN1CCN(c2nc(-c3ccc(O[C@@H](C)CO)cc3)cc3ccsc23)CC1 [Example 438, 7-(4-ethylpiperazin-1-yl)-5-[4-(1-methyl-2-hydroxyethoxy)phenyl]thieno[2,3-c]pyridine dihydrochloride] | 62.9 | 18.8
34 | CCN1CCN(c2nc(-c3ccc(CCC(C)(C)O)cc3)cc3ccsc23)CC1 [Example 439, 7-(4-ethylpiperazin-1-yl)-5-[4-(3-hydroxy-3-methylbutyl)phenyl]thieno[2,3-c]pyridine dihydrochloride] | 44.2 | 6.03
35 | CCN1CCN(c2nc(-c3ccc(CCC(C)O)cc3)cc3ccsc23)CC1 (stereo not shown) [Example 440, 7-(4-ethylpiperazin-1-yl)-5-[4-(3-hydroxybutyl)phenyl]thieno[2,3-c]pyridine dihydrochloride] | 21.8 | 0.72
